The text below walks through data of patent EP4800018A1, “PAN-KRAS INHIBITOR AND USE THEREOF IN MEDICINES” (Betta Pharmaceuticals Co., Ltd., priority 2023, dated 2025).

SMILES strings stand for the structures. Where two headings read alike, the source gives them in different places.

Common to all, as to assay type: cell-based
Experiment [1] has as its system KRAS-G12D mutant tumor cells AGS. The experiment in a line: Cell Proliferation Inhibition Assay (AGS), Cell-titer GLO, 96 h. The note with it: Homo sapiens, AGS, 96 h, read-out: AGS(G12D). Put shortly:
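Inhibition % was derived from CellTiter-Glo luminescence (max minus measured, over max minus blank) and fitted to give IC50. Cells were KRAS-G12D AGS in low-attachment wells, treated for 96 h at 37°C.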

The subject of experiment [2] is KRAS-G12V mutant tumor cells SW620. Nature of the experiment: Cell Proliferation Inhibition Assay (SW620), Cell-titer GLO, 96 h. The note with it: Homo sapiens, SW-620, 96 h, read-out: SW620(G12V). In outline:
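Readout: Cell-titer GLO luminescence after 96 h at 37°C, converted to percent inhibition against 0.5% DMSO and blank controls, with IC50 from curve fit. Low-attachment SW620 cultures (1×10^3 cells/well) were dosed at 10000–0.03 nM final.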

The next experiment addresses T1, KRAS G12D-cRAF (Homo sapiens, UniProt P01116, G12D).
T1 construct: expressed in transfected cells
Nature of the experiment: Cellular KRAS G12D-cRAF Binding Inhibition Assay (NanoBRET, AD293 stable cells). As to the method: (§1) NanoLuc® luciferase was used as the energy donor, and NanoBRET™ 618 fluorescent ligand labeled with the HaloTag® protein was used as the energy acceptor to detect protein-protein interactions in living cells. AD293 stable cells transfected with KRAS G12D-NanoLuc® luciferase and cRAF RBD-HaloTag® tag protein were seeded in 96-well plates at a cell density of 1×10^4 cells/well. Except for wells with medium added as a blank control, NanoBRET™ 618 fluorescent ligand was added to all other wells, and the plates were cultured overnight in a cell culture incubator. […] The luminescence data were calculated and converted into inhibition percent. The inhibition percent of KRAS G12D-cRAF binding was calculated according to the following formula: Inhibition Percent = (MaxValue−MeasuredValue)/(MaxValue−Blank) × 100% [formula] […] Curve fitting was performed using GraphPad Prism software to obtain IC50 values, see Table 1.
For orientation: In BRET a luciferase serves as donor, and the signal depends on an acceptor being close.

A further experiment concerns the target T2, KRAS G12V-cRAF (Homo sapiens, UniProt P01116, G12V).
T2 construct: expressed in transfected cells
The experiment in a line: Cellular KRAS G12V-cRAF Binding Inhibition Assay (NanoBRET, AD293 stable cells). As to the method:
as §1, with “AD293 stable cells transfected with KRAS G12D-NanoLuc® luciferase and cRAF RBD-HaloTag® tag protein were seeded in 96-well plates at a cell density of 1×10^4 cells/well.” left out, “G12V-cRAF” for “G12D-cRAF”

Where [3] appears, read: AGS cells, 96 h incubation, Cell-titer GLO.
Where [4] appears, read: SW620 cells, 96 h incubation, Cell-titer GLO.
The mark [5] stands for this setting: 3 h incubation, read-out: NanoBRET KRAS G12D.
[6] abbreviates: 3 h incubation, read-out: NanoBRET KRAS G12V.

T1 sequence (P01116 1-188 isoform P01116-2 G12D): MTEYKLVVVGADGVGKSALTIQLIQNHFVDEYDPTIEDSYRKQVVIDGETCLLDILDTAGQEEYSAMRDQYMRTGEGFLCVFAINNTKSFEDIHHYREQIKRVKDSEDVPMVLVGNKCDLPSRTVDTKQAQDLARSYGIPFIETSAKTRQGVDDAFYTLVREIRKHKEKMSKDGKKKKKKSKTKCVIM
T2 sequence (P01116 1-188 isoform P01116-2 G12V): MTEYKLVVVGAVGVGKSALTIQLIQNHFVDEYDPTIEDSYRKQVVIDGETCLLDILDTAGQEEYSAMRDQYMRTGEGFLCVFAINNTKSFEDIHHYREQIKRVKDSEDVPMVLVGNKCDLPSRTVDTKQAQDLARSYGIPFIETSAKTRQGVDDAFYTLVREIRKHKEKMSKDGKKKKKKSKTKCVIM

Take `CC1OCCCn2c(c3c4cc(ccc42)-c2csc(n2)CC(NC(=O)C2CC2C(F)F)C(=O)N2CCCC(N2)C(=O)OCC(C)(C)C3)-c2cc(N3CC(N(C)C)C3)cnc21` [Example 94, (1S,2S)-2-(difluoromethyl)-N-((1^5S,6^3S,4S,Z)-1^2-(3-(dimethylamino)azetidin-1-yl)-1^5,10,10-trimethyl-5,7-dioxo-1^8,1^9,6^1,6^2,6^3,6^4,6^5,6^6-octahydro-1^5H,1^7H-8-oxa-1(13,15)-pyrido[3',2':7,8][1,5]oxazonino[5,6-a]indola-2(4,2)-thiazola-6(1,3)-pyridazinacycloundecaphane-4-yl)cyclopropane-1-carboxamide]: the IC50 turned out to be 2.68 nM in experiment [1] (setting [3]), 0.34 nM in experiment [2] (setting [4]), 6.55 nM on KRAS G12D-cRAF (setting [5]) and 22.7 nM on KRAS G12V-cRAF (setting [6]).

For the compound `CC1OCCCn2c(c3c4cc(ccc42)-c2csc(n2)CC(NC(=O)C2CC2C(F)F)C(=O)N2CCCC(N2)C(=O)OCC(C)(C)C3)-c2cc(-c3ccc(N4CCN(C)CC4)cc3)cnc21` [Example 96, (1S,2S)-2-(difluoromethyl)-N-((1^5S,6^3S,4S,Z)-1^5,10,10-trimethyl-1^2-(4-(4-methylpiperazin-1-yl)phenyl)-5,7-dioxo-1^8,1^9,6^1,6^2,6^3,6^4,6^5,6^6-octahydro-15H,17H-8-oxa-1(13,15)-pyrido[3',2':7,8][1, 5]oxazonino[5,6-a]indola-2(4,2)-thiazola-6(1,3)-pyridazinacycloundecaphane-4-yl)cyclopropane-1-carboxamide], the IC50 in experiment [1] (setting [3]) stood at 2.4 nM; in experiment [2] (setting [4]) it was 1.07 nM; at KRAS G12D-cRAF (setting [5]) it was 5.99 nM; on KRAS G12V-cRAF (setting [6]), 19.8 nM.

Regarding `CC1OCCCn2c(c3c4cc(ccc42)-c2csc(n2)CC(NC(=O)C2CC2C(F)F)C(=O)N2CCCC(N2)C(=O)OCC(C)(C)C3)-c2cc(OC3CCN(C)CC3)cnc21` [Example 97, (1S,2S)-2-(difluoromethyl)-N-((1^5S,6^3S,4S,Z)-1^5,10,10-trimethyl-1^2-((1-methylpiperidin-4-yl)oxy)-5,7-dioxo-1^8,1^9,6^1,6^2,6^3,6^4,6^5,6^6-octahydro-1^5H,1^7H-8-oxa-1(13,15)-pyrido[3',2':7,8][1,5]oxazonino[5,6-a]indola-2(4,2)-thiazola-6(1,3)-pyridazinacycloundecaphane-4-yl)cyclopropane-1-carb oxamide], the IC50 was 2.69 nM in experiment [1] (setting [3]), 0.42 nM in experiment [2] (setting [4]), 11.9 nM on KRAS G12D-cRAF (setting [5]) and 61.8 nM at KRAS G12V-cRAF (setting [6]).

Consider `CC1OCCCn2c(c3c4cc(ccc42)-c2csc(n2)CC(NC(=O)C24CC(C)(C2)C4)C(=O)N2CCCC(N2)C(=O)OCC(C)(C)C3)-c2cc(N3CCN(CC(F)F)CC3)cnc21` [Example 98, N-((1^5S,6^3S,4S,Z)-1^2-(4-(2,2-difluoroethyl)piperazin-1-yl)-1^5,10,10-trimethyl-5,7-dioxo-1^8,1^9,6^1, 6^2,6^3,6^4,6^5,6^6-octahydro-1^5H,1^7H-8-oxa-1(13,15)-pyrido[3',2':7,8][1,5]oxazonino[5,6-a]indola-2(4,2)-thiazola-6(1,3)-pyridazinacycloundecaphane-4-yl)-3-methylbicyclo[1.1.1]pentane-1-carbox amide], for which the IC50 in experiment [1] (setting [3]) was 13.2 nM; in experiment [2] (setting [4]), 3.87 nM; at KRAS G12D-cRAF (setting [5]), 14.8 nM; at KRAS G12V-cRAF (setting [6]), 61.7 nM.

Consider `CC1OCCCn2c(c3c4cc(ccc42)-c2csc(n2)CC(NC(=O)C2CC2C(F)F)C(=O)N2CCCC(N2)C(=O)OCC(C)(C)C3)-c2cc(N3CC(N4CCN(C)CC4)C3)cnc21` [Example 99, (1S,2S)-2-(difluoromethyl)-N-((1^5S,6^3S,4S,Z)-1^5,10,10-trimethyl-1^2-(3-(4-methylpiperazin-1-yl)azetidin-1-yl)-5,7-dioxo-1^8,1^9,6^1,6^2,6^3,6^4,6^5,6^6-octahydro-1^5H,1^7H-8-oxa-1(13,15)-pyrido[3',2':7, 8][1,5]oxazonino[5,6-a]indola-2(4,2)-thiazola-6(1,3)-pyridazinacycloundecaphane-4-yl)cyclopro pane-1-carboxamide], for which the IC50 in experiment [1] was found to be 0.74 nM; in experiment [2], 0.14 nM; on KRAS G12D-cRAF (setting [5]) it was 4.25 nM; at KRAS G12V-cRAF (setting [6]), 13.3 nM.

Consider `C[C@@H]1OCCCn2c(c3c4cc(ccc42)-c2csc(n2)C[C@H](NC(=O)[C@H]2C[C@@H]2C(F)F)C(=O)N2CCC[C@H](N2)C(=O)OCC(C)(C)C3)-c2cc(N3CC4(CCN(C)CC4)C3)cnc21` [Example 100, (1S,2S)-2-(difluoromethyl)-N-((1^5S,6^3S,4S,Z)-1^5,10,10-trimethyl-1^2-(7-methyl-2,7-diazaspiro[3. 5]nonan-2-yl)-5,7-dioxo-1^8,1^9,6^1,6^2,6^3,6^4,6^5,6^6-octahydro-1^5H,1^7H-8-oxa-1(13,15)-pyrido[3',2':7, 8][1,5]oxazonino[5,6-a]indola-2(4,2)-thiazola-6(1,3)-pyridazinacycloundecaphane-4-yl)cyclopro pane-1-carboxamide], for which the IC50 was 0.44 nM in experiment [1]; 0.1 nM in experiment [2]; 4.55 nM on KRAS G12D-cRAF (read-out: NanoBRET KRAS G12D, 3 h incubation); 21.7 nM on KRAS G12V-cRAF (read-out: NanoBRET KRAS G12V, 3 h incubation).

Turning to `COCCN1CCN(c2cnc3c(c2)-c2c4c5cc(ccc5n2CCCOC3C)-c2csc(n2)CC(NC(=O)C2CC2C(F)F)C(=O)N2CCCC(N2)C(=O)OCC(C)(C)C4)CC1` [Example 101, (1S,2S)-2-(difluoromethyl)-N-((1^5S,6^3S,4S,Z)-1^2-(4-(2-methoxyethyl)piperazin-1-yl)-1^5,10,10-trimethyl-5,7-dioxo-1^8,1^9,6^1,6^2,6^3,6^4,6^5,6^6-octahydro-1^5H,1^7H-8-oxa-1(13,15)-pyrido[3',2':7,8][1,5]oxazonino[5,6-a]indola-2(4,2)-thiazola-6(1,3)-pyridazinacycloundecaphane-4-yl)cyclopropane-1-carboxamide], the IC50 in experiment [1] (setting [3]) amounted to 1.4 nM; in experiment [2] (setting [4]) it was 0.26 nM; at KRAS G12D-cRAF (setting [5]) it was 2.74 nM; at KRAS G12V-cRAF (setting [6]) it was 12 nM.

As for `CC1OCCCn2c(c3c4cc(ccc42)-c2csc(n2)CC(NC(=O)C2CC2C(F)F)C(=O)N2CCCC(N2)C(=O)OCC(C)(C)C3)-c2cc(N3CCC(N4CCN(C)CC4)CC3)cnc21` [Example 102, (1S,2S)-2-(difluoromethyl)-N-((1^5S,6^3S,4S,Z)-1^5,10,10-trimethyl-1^2-(4-(4-methylpiperazin-1-yl)piperidin-1-yl)-5,7-dioxo-1^8,1^9,6^1,6^2,6^3,6^4,6^5,6^6-octahydro-1^5H,1^7H-8-oxa-1(13,15)-pyrido[3',2':7 ,8][1,5]oxazonino[5,6-a]indola-2(4,2)-thiazola-6(1,3)-pyridazinacycloundecaphane-4-yl)cyclopr opane-1-carboxamide], the IC50 was found to be 0.38 nM in experiment [1] (setting [3]), 0.17 nM in experiment [2] (setting [4]), 4.13 nM at KRAS G12D-cRAF (setting [5]) and 14.7 nM on KRAS G12V-cRAF (setting [6]).

For the compound `CC1OCCCn2c(c3c4cc(ccc42)-c2csc(n2)CC(NC(=O)C2CC2C(F)F)C(=O)N2CCCC(N2)C(=O)OCC(C)(C)C3)-c2cc(N3CCC4(CCN(C)CC4)CC3)cnc21` [Example 103, (1S,2S)-2-(difluoromethyl)-N-((1^5S,6^3S,4S,Z)-1^5,10,10-trimethyl-1^2-(9-methyl-3,9-diazaspiro[5. 5]undecan-3-yl)-5,7-dioxo-1^8,1^9,6^1,6^2,6^3,6^4,6^5,6^6-octahydro-1^5H,1^7H-8-oxa-1(13,15)-pyrido[3',2': 7,8][1,5]oxazonino[5,6-a]indola-2(4,2)-thiazola-6(1,3)-pyridazinacycloundecaphane-4-yl)cyclop ropane-1-carboxamide], the IC50 in experiment [1] (setting [3]) came out at 0.85 nM; in experiment [2] (setting [4]), 0.21 nM; on KRAS G12D-cRAF (setting [5]) it was 7.74 nM; on KRAS G12V-cRAF (setting [6]), 22.2 nM.
